Test [1] concerns the target T1, human recombinant histamine H1 receptor (Homo sapiens, UniProt P35367).
T1 construct: expressed in transfected cells; host or cells: CHO cells
Nature of the test: Histamine H1 radioligand binding ([3H]Pyrilamine). To be noted: compound at 1 μM; inhibition of specific [3H]Pyrilamine binding; read-out: Histamine Binding (1 μM) H1, Percentage Inhibition. An outline of the steps: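 Membranes from CHO cells expressing human H1 receptor were incubated with 1.2 nM [3H]pyrilamine for 180 min at 25° C in Tris-HCl buffer pH 7.4. Non-specific binding defined with 1 μM pyrilamine; compounds tested at 1 μM or lower in 1% DMSO. Results are given as % inhibition of specific binding.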

Test [2] deals with T2, human recombinant adrenergic α1D receptor (Homo sapiens, UniProt P25100).
T2 construct: expressed in transfected cells; host or cells: HEK-293 cells
T2 sequence (P25100 1-572): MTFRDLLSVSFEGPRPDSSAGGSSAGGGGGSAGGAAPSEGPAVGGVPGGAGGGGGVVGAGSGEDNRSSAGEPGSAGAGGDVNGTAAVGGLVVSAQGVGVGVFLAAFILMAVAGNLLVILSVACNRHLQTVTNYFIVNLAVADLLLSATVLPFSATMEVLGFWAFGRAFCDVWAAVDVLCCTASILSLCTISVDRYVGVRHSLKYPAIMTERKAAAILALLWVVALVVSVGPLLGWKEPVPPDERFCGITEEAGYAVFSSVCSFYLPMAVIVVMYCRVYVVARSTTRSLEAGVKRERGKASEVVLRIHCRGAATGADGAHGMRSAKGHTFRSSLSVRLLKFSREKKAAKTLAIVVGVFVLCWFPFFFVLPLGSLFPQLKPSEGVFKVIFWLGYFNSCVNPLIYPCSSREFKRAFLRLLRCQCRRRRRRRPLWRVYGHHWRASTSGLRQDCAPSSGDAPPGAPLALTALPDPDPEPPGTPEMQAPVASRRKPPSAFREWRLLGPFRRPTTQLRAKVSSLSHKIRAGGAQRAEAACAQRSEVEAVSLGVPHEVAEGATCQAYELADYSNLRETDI
Nature of the test: Adrenergic α1D radioligand binding ([3H]Prozosin). To be noted: 1 μM; read-out: Adrenergic α1D, inhibition of ligand binding (1 μM). The method, then:
To evaluate in radioligand binding assays the activity of compounds of the invention, human recombinant adrenergic α1D receptor expressed in human embryonic kidney (HEK-293) cells (Kenny, B. A. et al. Br. J. Pharmacol. 115(6):981, 1995) in a 50 mM Tris-HCl buffer, pH 7.4, was used. Compounds of invention were incubated with 0.6 nM [^3H]Prozosin for 60 minutes at 25° C. Non-specific binding was estimated in the presence of 10 μM phentolamine. Receptor proteins were filtered and washed, the filters were then counted to determine [^3H]Prozosin specifically bound. Compounds were screened at 1 μM or lower, using 1% DMSO as vehicle. Biochemical assay results are presented as the percent inhibition of specific binding in Table 3.

For test [3], the target named is T3, human recombinant adrenergic α2B receptor (Homo sapiens, UniProt P18089).
T3 construct: expressed in transfected cells; host or cells: CHO-K1 cells
T3 sequence (P18089 1-450): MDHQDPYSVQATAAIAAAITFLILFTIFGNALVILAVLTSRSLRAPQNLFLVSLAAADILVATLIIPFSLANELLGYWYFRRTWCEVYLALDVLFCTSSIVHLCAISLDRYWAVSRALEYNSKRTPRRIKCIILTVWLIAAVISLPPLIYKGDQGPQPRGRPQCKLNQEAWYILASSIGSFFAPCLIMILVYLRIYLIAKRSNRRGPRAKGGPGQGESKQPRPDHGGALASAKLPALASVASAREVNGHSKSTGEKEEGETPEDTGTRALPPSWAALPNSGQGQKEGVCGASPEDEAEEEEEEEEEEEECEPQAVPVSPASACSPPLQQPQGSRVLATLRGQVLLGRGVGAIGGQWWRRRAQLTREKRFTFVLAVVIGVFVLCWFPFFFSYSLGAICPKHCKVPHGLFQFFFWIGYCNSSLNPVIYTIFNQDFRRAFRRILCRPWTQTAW
The experiment in a line: Adrenergic α2B radioligand binding ([3H]Rauwolscine). To be noted: 1 μM; read-out: Adrenergic α2B, inhibition of ligand binding (1 μM). On the procedure: To evaluate in radioligand binding assays the activity of compounds of the invention, human recombinant adrenergic α2B receptor expressed in Chinese hamster ovary (CHO-K1) cells (Uhlen S et al. Eur J. Pharmacol. 343(1):93, 1998) in a modified Tris-HCl buffer (50 mM Tris-HCl, pH 7.4, 12.5 mM MgCl2, 1 mM EDTA, 0.2% BSA) was used. Compounds of the invention were incubated with 2.5 nM [^3H]Rauwolscine for 60 minutes at 25° C. Non-specific binding was estimated in the presence of 10 μM Prozosin. Receptor proteins were filtered and washed, the filters were then counted to determine [^3H]Rauwolscine specifically bound. Compounds were screened at 1 μM or lower, using 1% DMSO as vehicle. Biochemical assay results are presented as the percent inhibition of specific binding in Table 3.

Test [4] has as its target T4, human recombinant serotonin (5-Hydroxytryptamine) 5-HT2A receptor (Homo sapiens, UniProt P28223).
T4 construct: expressed in transfected cells; host or cells: CHO-K1 cells
Nature of the test: Serotonin 5-HT2A radioligand binding ([3H]Ketanserin). To be noted: read-out: Serotonin 5-HT2A, inhibition of ligand binding (1 μM). An outline of the steps:
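CHO-K1 membranes with human 5-HT2A in 50 mM Tris-HCl pH 7.4, incubated with 0.5 nM [3H]Ketanserin for 60 min at 25 °C; non-specific binding defined with 1 μM mianserin. Bound ligand measured by filtration and counting.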

Structures are written as SMILES.

A word on the inhibition: it is the relative decrease from the control value, in per cent.

T4 sequence (P28223 whole entry): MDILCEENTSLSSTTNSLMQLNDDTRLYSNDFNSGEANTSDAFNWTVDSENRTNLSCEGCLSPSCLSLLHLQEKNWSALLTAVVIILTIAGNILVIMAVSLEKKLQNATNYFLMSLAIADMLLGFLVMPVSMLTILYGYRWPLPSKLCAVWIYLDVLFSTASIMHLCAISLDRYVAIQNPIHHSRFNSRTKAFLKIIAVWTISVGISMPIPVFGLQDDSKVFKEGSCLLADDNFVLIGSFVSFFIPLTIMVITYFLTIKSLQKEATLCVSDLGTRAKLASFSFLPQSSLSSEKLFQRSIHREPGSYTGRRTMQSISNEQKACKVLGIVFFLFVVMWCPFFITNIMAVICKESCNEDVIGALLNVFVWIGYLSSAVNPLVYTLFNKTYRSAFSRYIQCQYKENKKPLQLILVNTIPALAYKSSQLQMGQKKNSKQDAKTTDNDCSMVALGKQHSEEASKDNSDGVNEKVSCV
T1 sequence (P35367 whole entry): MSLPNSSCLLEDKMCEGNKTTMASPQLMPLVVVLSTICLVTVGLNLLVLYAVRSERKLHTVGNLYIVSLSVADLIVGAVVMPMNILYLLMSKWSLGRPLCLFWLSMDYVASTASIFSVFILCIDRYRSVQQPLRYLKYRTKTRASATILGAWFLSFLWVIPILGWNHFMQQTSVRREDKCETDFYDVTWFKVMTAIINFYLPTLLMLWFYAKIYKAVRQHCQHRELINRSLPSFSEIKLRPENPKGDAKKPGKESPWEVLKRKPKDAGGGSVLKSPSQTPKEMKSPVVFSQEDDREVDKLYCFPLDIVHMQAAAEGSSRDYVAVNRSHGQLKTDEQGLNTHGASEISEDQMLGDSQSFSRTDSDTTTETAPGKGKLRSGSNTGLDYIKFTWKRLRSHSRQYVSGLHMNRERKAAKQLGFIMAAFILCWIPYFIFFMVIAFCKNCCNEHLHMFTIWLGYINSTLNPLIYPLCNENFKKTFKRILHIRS

With `CN1C2CCC1c1c(n(CCc3ccc(C(F)(F)F)nc3)c3cc(F)c(Cl)cc13)C2` (stereo not drawn) [Compound 77], the inhibition at 1 µM turned out to be 32% in test [1], 37% in test [2], 75% in test [3] and 26% in test [4].

As to `CN1C2CCC1c1c(n(CCc3cccnc3)c3ccc(Cl)cc13)C2` (stereo not drawn) [Compound 80], the inhibition at 1 µM in test [1] was determined as 94%; in test [2], 54%; in test [3], 95%; in test [4] it was 33%.

`CN1C2CCC1c1c(n(CCC(=O)N3CCS(=O)(=O)CC3)c3ccc(Cl)cc13)C2` (stereo not drawn) [Compound 11]: the inhibition at 1 µM was 2% in test [1], -11% in test [2], 1% in test [3] and -8% in test [4].

Take `C/C(=C\n1c2c(c3cc(C)ccc31)C1CCC(C2)N1C)c1ccc(F)cc1` (stereo not drawn) [Compound 124]: the inhibition at 1 µM in test [1] was found to be 31%; in test [2], 67%; in test [3] it was 101%; in test [4], 97%.

As for `Cc1ccc2c(c1)c1c(n2CCc2ccc(C)nc2)CC2CCC1N2C` (stereo not drawn) [Compound 32], the inhibition at 1 µM came to 94% in test [1], 53% in test [2], 82% in test [3] and 15% in test [4].

For the molecule `Cc1ccc2c(c1)c1c(n2CC(=O)N2CCCCC2)CC2CCC1N2C` (stereo not drawn) [Compound 93], the inhibition at 1 µM in test [1] is 4%; in test [2], -18%; in test [3], -6%; in test [4], -12%.

Take `C/C(=C\n1c2c(c3cc(Cl)ccc31)C1CCC(C2)N1C)c1ccc(F)cc1` (stereo not drawn) [Compound 123]: the inhibition at 1 µM was found to be 62% in test [1], 79% in test [2], 103% in test [3] and 97% in test [4].

Take `Cc1ccc(CCn2c3c(c4ccccc42)[C@@H]2CC[C@H](C3)N2C)cn1` [Compound 102]: the inhibition at 1 µM in test [1] was found to be 52%; in test [2], 1%; in test [3], 42%; in test [4], 11%.

Turning to `CN1C2CCC1c1c(n(CCC(=O)O)c3ccc(Cl)cc13)C2` (stereo not drawn) [Compound 72], the inhibition at 1 µM in test [1] is 14%; in test [2], -9%; in test [3], -8%; in test [4] it was -6%.

In the case of `Cc1ccc2c(c1)c1c(n2CCc2cnc(C)nc2)CC2CCC1N2C` (stereo not drawn) [Compound 81], the inhibition at 1 µM is 51% in test [1], 42% in test [2], 40% in test [3] and -12% in test [4].

On to `Cc1ccc2c(c1)c1c(n2C(=O)Cc2ccc(Cl)cc2)CC2CCC1N2C` (stereo not drawn) [Compound 162], for which the inhibition at 1 µM stood at 0% in test [1], 34% in test [2], 83% in test [3] and 92% in test [4].

Turning to `CN1C2CCC1c1c(n(CC(=O)c3ccccc3)c3ccc(Cl)cc13)C2` (stereo not drawn) [Compound 110], the inhibition at 1 µM turned out to be 36% in test [1], 40% in test [2], 92% in test [3] and 83% in test [4].

Consider `Cc1ccc(C#Cn2c3c(c4cc(Cl)ccc42)C2CCC(C3)N2C)cn1` (stereo not drawn) [Compound 139], for which the inhibition at 1 µM worked out at 57% in test [1], 65% in test [2], 115% in test [3] and 88% in test [4].

Take `CN1C2CCC1c1c(n(CCCc3ccc(C(F)(F)F)nc3)c3ccc(Cl)cc13)C2` (stereo not drawn) [Compound 37]: the inhibition at 1 µM in test [1] was 78%; in test [2], 12%; in test [3], 51%; in test [4] it was 23%.

As to `C/C(=C\n1c2c(c3cc(Cl)ccc31)C1CCC(C2)N1C)c1ccc(Cl)cc1` (stereo not drawn) [Compound 125], the inhibition at 1 µM in test [1] was determined as 82%; in test [2] it was 54%; in test [3], 103%; in test [4] it was 101%.
